Laboratory results as given in patent publication US9259438B2, “Methods for in vitro maturation of ovarian follicles” (priority 2008, dated 2016).

What was measured:
[1] = test system: primordial follicles in cultured mouse ovaries; test: Culture of postnatal day 4 mouse ovaries with PTEN inhibitor, morphological analysis; assay type: cell-based; conditions: postnatal day 4 mouse ovaries cultured for 8 days, 10 μM inhibitor vs. carrier
Experimental: Postnatal day 4 mouse ovaries containing primordial follicles were cultured for 8 days with carrier (A) or PTEN inhibitor bpv (Hopic) (B).
Postnatal day 4 mouse ovaries were removed aseptically and the whole ovary was cultured in a Cell Strainer (40 μm pore size) (BD Biosciences, Stockholm, Sweden) in 1 ml alpha-MEM medium (Gibco-BRL) supplemented with 28 mM ascorbic acid and 0.3% (w/v) BSA, with or without 10 μM of the PTEN inhibitor bpV-HOpic (Dipotassium Bisperoxo(5-hydroxypyridine-2-carboxyl)oxovanadate (V), K2[VO(O2)2C6H4NO3]). The cultured ovaries were incubated in a humidified incubator (5% CO2, 37° C.) with one-third of the medium exchanged for fresh medium every day for the duration of the culture period. For fixation, the ovaries were washed once in PBS and fixed overnight in 4% paraformaldehyde, and embedded for morphological analysis.

Akt = test: Western blot of Akt activation (p-Akt, serine 473) in oocytes after Kit ligand treatment; assay type: cell-based, mouse; conditions: 100 ng/ml, 2 min; PD12-14 Pten loxP/loxP; GCre+ oocytes vs. control oocytes
Experimental: Oocytes were isolated from ovaries of Pten^loxP/loxP; GCre+ and Pten^loxP/loxP mice at PD5 and PD12-14, and western blots were performed (A) Levels of p-Akt (serine 473) and total Akt in PD12-14 Pten^loxP/loxP; GCre+ and Pten^loxP/loxP oocytes. (B) Activation of Akt (p-Akt, serine 473) by Kit ligand (KL) treatment (100 ng/ml, 2 min) in PD12-14 Pten^loxP/loxP; GCre+ and Pten^loxP/loxP oocytes. Levels of Akt were used as internal controls. (C) Signaling studies in Pten^loxP/loxP; GCre+ and Pten^loxP/loxP oocytes at PD5 and PD12-14, showing levels of p-Akt (serine 473), rpS6, p-rpS6 (serine 235/6), p-mTOR (serine 2448), p-TSC2 (threonine 1462), and p-S6K (threonine 389). Levels of total Akt, mTOR, TSC2, S6K, and β-actin were used as internal controls. All experiments were repeated at least 3 times. For isolation of PD5 oocytes for western blot, 10-15 Pten^loxP/loxP; GCre+ or Pten^loxP/loxP mice were used for each lane. For isolation of PD12-14 oocytes, 3-5 Pten^loxP/loxP^P; GCre+ mice or 6-10 Pten^loxP/loxP mice were used per lane. In each lane, 30-40 μg of protein sample was loaded.
Thus, activation of the pool of primordial follicles ends up with follicle depletion. This causes POF (premature ovarian failure) in Pten^loxP/loxP; GCr+ mice. The phenotype observed in these mice resembles that of human POF (Beck-Peccoz and Persani, Orphanet. J. Rare. Dis. 2006, 1: 9). […]

Molecule | proliferation and differentiation of flattened pre-granulosa cells into cuboidal granulosa cells [1] | survival rate of follicles in the cultured ovaries [1] | activation of Akt (p-Akt, serine 473) (Akt)
Dipotassium Bisperoxo(5-hydroxypyridine-2-carboxyl)oxovanadate (V) [bpV-HOpic] | stimulates the proliferation and differentiation of flattened pre-granulosa cells | enhances the survival rate of follicles | 
Kit ligand (KL): Kit ligand, activates the PI3K pathway in growing oocytes through its oocyte surface receptor Kit (protein, UniProt P20826 26-190, looked up) Soluble KIT ligand: KEICGNPVTDNVKDITKLVANLPNDYMITLNYVAGMDVLPSHCWLRDMVIQLSLSLTTLLDKFSNISEGLSNYSIIDKLGKIVDDLVLCMEENAPKNIKESPKRPETRSFTPEEFFSIFNRSIDAFKDFMVASDTSDCVLSSTLGPEKDSRVSVTKPFMLPPVAA |  |  | activated Akt to a greater extent
